In patent US8772316B2, “Substituted 6,7-dialkoxy-3-isoquinolinol derivatives as inhibitors of phosphodiesterase 10 (PDE10A)” (Allergan, Inc., priority 2011, dated 2014):
Counter-ions that a name gives are not always drawn.

molecular target: PDE10A (Homo sapiens, UniProt Q9Y233); experiment: Phosphodiesterase assay (TR-FRET, LANCE cAMP kit); type: biochemical; conditions: PDE10A (BPS Bioscience) 200 pg/well, biotin-cAMP substrate, 60 min at room temperature
Protocol: (§1) The PDE assay is based on the homogenous time-resolved fluorescence resonance energy transfer (TR-FRET) technology (LANCE® from Perkin Elmer). […] When there is PDE activity, resulting in the degradation of the cyclic nucleotide, the complex is not formed and a decrease in signal is observed.
(§2) The phosphodiesterase assay was developed using the LANCE® cAMP kit (PerkinElmer). The assay buffer contained HBSS with 5 mM HEPES, 0.1% BSA, and 1.5 mM MgCl2, pH 7.4. PDE10A (BPS Bioscience) was used at 200 pg/well (with a specific activity of 3200 pmole/min/μg with assay conditions: 10 mM Tris-HCl, pH7.4, 10 mM MgCl2, 1 mM MnCl2, 200 μM cAMP, 2.5 kU 5′ nucleotidase, 37° C., 20 min). […] Chemical compounds were dissolved in DMSO (final concentration 2% (v/v)).
(§3) In a 384-well plate, 2 μL inhibitor and 3 μL PDE were added to the well, followed by the addition of 5 μl substrate biotinylated cAMP (1:5). After 60 min incubation at room temperature, 10 μL of assay detection mixture was added to the assay plate. After 1 h at room temperature, the signal was measured on EnVision™ (Perkin Elmer).

Sequence of PDE10A (Homo sapiens, UniProt Q9Y233) (Q9Y233 whole entry, looked up): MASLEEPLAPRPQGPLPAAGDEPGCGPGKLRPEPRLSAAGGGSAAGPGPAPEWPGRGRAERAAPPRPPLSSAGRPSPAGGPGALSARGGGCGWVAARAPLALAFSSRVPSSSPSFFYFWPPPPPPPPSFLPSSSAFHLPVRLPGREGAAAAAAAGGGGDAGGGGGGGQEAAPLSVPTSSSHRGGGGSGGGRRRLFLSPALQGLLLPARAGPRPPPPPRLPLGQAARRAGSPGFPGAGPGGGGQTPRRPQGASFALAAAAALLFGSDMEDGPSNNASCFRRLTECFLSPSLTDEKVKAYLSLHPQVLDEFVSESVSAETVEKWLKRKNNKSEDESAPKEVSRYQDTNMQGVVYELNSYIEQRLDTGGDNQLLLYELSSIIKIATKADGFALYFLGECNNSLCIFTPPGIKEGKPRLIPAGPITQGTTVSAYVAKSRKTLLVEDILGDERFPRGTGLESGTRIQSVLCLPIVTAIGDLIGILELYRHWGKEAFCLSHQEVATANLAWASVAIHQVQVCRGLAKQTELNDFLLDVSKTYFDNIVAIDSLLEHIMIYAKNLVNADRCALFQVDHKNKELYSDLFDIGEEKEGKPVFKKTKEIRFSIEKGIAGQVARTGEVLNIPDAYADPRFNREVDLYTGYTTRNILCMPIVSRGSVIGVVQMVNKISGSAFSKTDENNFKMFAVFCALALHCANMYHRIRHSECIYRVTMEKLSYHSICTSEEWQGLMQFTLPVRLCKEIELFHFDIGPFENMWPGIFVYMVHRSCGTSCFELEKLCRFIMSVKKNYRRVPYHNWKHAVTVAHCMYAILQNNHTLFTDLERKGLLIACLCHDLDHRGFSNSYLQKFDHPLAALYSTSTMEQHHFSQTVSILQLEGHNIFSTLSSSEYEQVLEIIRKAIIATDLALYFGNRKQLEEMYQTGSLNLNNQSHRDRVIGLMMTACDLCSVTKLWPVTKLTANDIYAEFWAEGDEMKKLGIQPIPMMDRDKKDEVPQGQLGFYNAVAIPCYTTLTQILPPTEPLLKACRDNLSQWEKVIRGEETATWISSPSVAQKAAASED

Row | IC50 [µM] | Structure (SMILES)
1 | 0.088 | COc1cc2c(C(C)C)nc(O)c(Cc3cnc4ccccc4c3)c2cc1OC [Compound 79, 1-Isopropyl-6,7-dimethoxy-4-(quinolin-3-ylmethyl)isoquinolin-3-ol dihydrochloride]
2 | 0.0027 | CCCNc1nc2ccc(OC)cc2cc1Cc1c(O)nc(C)c2cc(OC)c(OC)cc12 [Compound 38, 6,7-dimethoxy-4-((6-methoxy-2-(propylamino)quinolin-3-yl)methyl)-1-methylisoquinolin-3-ol dihydrochloride]
3 | 0.011 | CCc1nc(O)c(Cc2ccc3ccccc3c2)c2cc(OC)c(OC)cc12 [Compound 19, 1-ethyl-6,7-dimethoxy-4-(naphthalen-2-ylmethyl)isoquinolin-3-ol hydrochloride]
4 | 0.029 | COc1ccc2cc(Cc3c(O)nc(C)c4cc(OC)c(OC)cc34)cnc2c1 [Compound 29, 6,7-Dimethoxy-4-((7-methoxyquinolin-3-yl)methyl)-1-methylisoquinolin-3-ol dihydrochloride]
5 | 0.0012 | CCCc1nc(O)c(Cc2cc3cc4c(cc3nc2NCC)OCO4)c2cc(OC)c(OC)cc12 [Compound 64, 4-((6-(ethylamino)-[1,3]dioxolo[4,5-g]quinolin-7-yl)methyl)-6,7-dimethoxy-1-propylisoquinolin-3-ol dihydrochloride]
6 | 0.00028 | CCCc1nc(O)c(Cc2cc3cc(OC)ccc3nc2NCC)c2cc(OC)c(OC)cc12 [Compound 50, 4-((2-(ethylamino)-6-methoxyquinolin-3-yl)methyl)-6,7-dimethoxy-1-propylisoquinolin-3-ol dihydrochloride]
7 | 0.0046 | CCCc1nc(O)c(Cc2cc3cc(OCC)ccc3nc2NCC)c2cc(OC)c(OC)cc12 [Compound 49, 4-((6-ethoxy-2-(ethylamino)quinolin-3-yl)methyl)-6,7-dimethoxy-1-propylisoquinolin-3-ol dihydrochloride]
8 | 0.002 | CCc1nc(O)c(Cc2cc3cc(OC)ccc3nc2NCCOC)c2cc(OC)c(OC)cc12 [Compound 77, 1-Ethyl-6,7-dimethoxy-4-((6-methoxy-2-(2-methoxyethylamino)quinolin-3-yl)methyl)isoquinolin-3-ol dihydrochloride]
9 | 0.265 | COc1cc2c(C)nc(O)c(Cc3ccnc4ccccc34)c2cc1OC [Compound 25, 6,7-Dimethoxy-1-methyl-4-(quinolin-4-ylmethyl)isoquinolin-3-ol dihydrochloride]
10 | 0.333 | COc1cc2c(C)nc(O)c(Cc3ccc4cnccc4c3)c2cc1OC [Compound 21, 4-(Isoquinolin-6-ylmethyl)-6,7-dimethoxy-1-methylisoquinolin-3-ol dihydrochloride]
11 | 0.0035 | CCc1nc(O)c(Cc2cc3cc(OC)ccc3nc2NC(C)C)c2cc(OC)c(OC)cc12 [Compound 43, 1-Ethyl-4-((2-(isopropylamino)-6-methoxyquinolin-3-yl)methyl)-6,7-dimethoxyisoquinolin-3-ol dihydrochloride]
12 | 0.05 | COc1ccc(-c2cccc(Cc3c(O)nc(C)c4cc(OC)c(OC)cc34)n2)cc1 [Compound 13, 6,7-dimethoxy-4-((6-(4-methoxyphenyl)pyridin-2-yl)methyl)-1-methylisoquinolin-3-ol dihydrochloride]
13 | 0.0018 | CCCc1nc(O)c(Cc2cc3cc(OCC)ccc3nc2NCCNC(C)=O)c2cc(OC)c(OC)cc12 [Compound 88, N-(2-((6-ethoxy-3-((3-hydroxy-6,7-dimethoxy-1-propylisoquinolin-4-yl)methyl)quinolin-2-yl)amino)ethyl)acetamide dihydrochloride]
14 | 0.0015 | CCCc1nc(O)c(Cc2cc3cc(C)ccc3nc2NCC)c2cc(OC)c(OC)cc12 [Compound 35, 4-((2-(Ethylamino)-6-methylquinolin-3-yl)methyl)-6,7-dimethoxy-1-propylisoquinolin-3-ol dihydrochloride]
15 | 0.021 | CCOc1ccc2cc(Cc3c(O)nc(C)c4cc(OC)c(OC)cc34)cnc2c1 [Compound 30, 4-((7-ethoxyquinolin-3-yl)methyl)-6,7-dimethoxy-1-methylisoquinolin-3-ol dihydrochloride]
16 | 0.0003 | CCCc1nc(O)c(Cc2cc3cc(OCC)c(F)cc3nc2NCC)c2cc(OC)c(OC)cc12 [Compound 86, 4-((6-Ethoxy-2-(ethylamino)-7-fluoroquinolin-3-yl)methyl)-6,7-dimethoxy-1-propylisoquinolin-3-ol dihydrochloride]
17 | 0.011 | CCNc1nc2ccc(OC)cc2cc1Cc1c(O)nc(C(C)C)c2cc(OC)c(OC)cc12 [Compound 47, 4-((2-(ethylamino)-6-methoxyquinolin-3-yl)methyl)-1-isopropyl-6,7-dimethoxyisoquinolin-3-ol dihydrochloride]
18 | 0.0015 | CCCNc1nc2ccc(OC)cc2cc1Cc1c(O)nc(CCC)c2cc(OC)c(OC)cc12 [Compound 52, 6,7-dimethoxy-4-((6-methoxy-2-(propylamino)quinolin-3-yl)methyl)-1-propylisoquinolin-3-ol dihydrochloride]
19 | 0.03 | CCc1nc(O)c(Cc2cc3cc(OC)ccc3nc2NCC(F)(F)F)c2cc(OC)c(OC)cc12 [Compound 45, 1-ethyl-6,7-dimethoxy-4-((6-methoxy-2-(2,2,2-trifluoroethylamino)quinolin-3-yl)methyl)isoquinolin-3-ol dihydrochloride]
20 | 0.097 | COc1cc2c(C)nc(O)c(Cc3cncc(-c4ccccc4)c3)c2cc1OC [Compound 15, 6,7-Dimethoxy-1-methyl-4-((5-phenylpyridin-3-yl)methyl)isoquinolin-3-ol dihydrochloride]

molecular target: PDE10A; experiment: Phosphodiesterase assay (TR-FRET, LANCE cAMP kit); type: biochemical; conditions: PDE10A (BPS Bioscience) 200 pg/well, biotin-cAMP substrate, 60 min at room temperature
Protocol: as §1, §2, §3

Row | IC50 [µM] | Structure (SMILES)
21 | 0.093 | CCCCc1nc2ccc(OC)cc2cc1Cc1c(O)nc(CCC)c2cc(OC)c(OC)cc12 [Compound 71, 4-((2-Butyl-6-methoxyquinolin-3-yl)methyl)-6,7-dimethoxy-1-propylisoquinolin-3-ol dihydrochloride]
22 | 0.017 | COc1cc2c(C)nc(O)c(Cc3cnc4cccc(OC)c4c3)c2cc1OC [Compound 27, 6,7-Dimethoxy-4-((5-methoxyquinolin-3-yl)methyl)-1-methylisoquinolin-3-ol dihydrochloride]
23 | 0.0024 | CCCc1nc(O)c(Cc2cc3cc(OC)c(F)cc3nc2NCC)c2cc(OC)c(OC)cc12 [Compound 70, 4-((2-(Ethylamino)-7-fluoro-6-methoxyquinolin-3-yl)methyl)-6,7-dimethoxy-1-propylisoquinolin-3-ol dihydrochloride]
24 | 0.0018 | CCNc1nc2ccc(OC)cc2cc1Cc1c(O)nc(COC)c2cc(OC)c(OC)cc12 [Compound 67, 4-((2-(ethylamino)-6-methoxyquinolin-3-yl)methyl)-6,7-dimethoxy-1-(methoxymethyl)isoquinolin-3-ol dihydrochloride]
25 | 0.01 | CCCc1nc(O)c(Cc2cc3cc(OCC4CC4)ccc3nc2NCCNC(C)=O)c2cc(OC)c(OC)cc12 [Compound 83, N-(2-(6-(cyclopropylmethoxy)-3-((3-hydroxy-6,7-dimethoxy-1-propylisoquinolin-4-yl)methyl)quinolin-2-ylamino)ethyl)acetamide dihydrochloride]
26 | 10.6 | CCc1nc(O)c(Cc2cccc(-c3ccc(OC)cc3)c2)c2cc(OC)c(OC)cc12 [Compound 9, 1-ethyl-6,7-dimethoxy-4-((4′-methoxy-[1,1′-biphenyl]-3-yl)methyl)isoquinolin-3-ol hydrochloride]
